Measurements reported in paper PMC10530836, “Synthesis, Molecular Docking, and Biological Evaluation of Novel Anthranilic Acid Hybrid and Its Diamides as Antispasmodics” (International Journal of Molecular Sciences, 2023).
Where two headings read alike, the source gives them in different places.

Legend:
[1] = system: Fusarium moniliforme ATCC 38932; assay: Antimicrobial activity, agar well diffusion; format: cell-based; settings: Dose 0.6 mg/disk, dwell = 6 mm
Description: (§1) Twenty tested microorganisms including six Gram-positive bacteria (Bacillus subtilis ATCC 6633, Bacillus amyloliquefaciens 4BCL-YT, Staphylococcus aureus ATCC 25923, Listeria monocytogenes NBIMCC 8632, Enterococcus faecalis ATCC 19433), six Gram-negative bacteria (Salmonella enteritidis ATCC 13076, Klebsiella sp.—clinical isolate, Escherichia coli ATCC 25922, Proteus vulgaris ATCC 6380, Pseudomonas aeruginosa ATCC 9027), two yeasts (Candida albicans NBIMCC 74, Saccharomyces cerevisiae ATCC 9763), and six fungi (Aspergillus niger ATCC 1015, Aspergillus flavus, Penicillium sp., Rhizopus sp., Mucor sp.—plant isolates, Fusarium moniliforme ATCC 38932) from the collection of the Department of Microbiology at the University of Food Technologies—Plovdiv, Bulgaria, were selected for the antimicrobial activity test. The antimicrobial activity of the samples was determined by the agar well diffusion method. The tested bacteria B. subtilis and B. amyloliquefaciens were cultured on LBG agar at 30 °C. The test bacteria S. aureus, L. monocytogenes, E. faecalis, S. enteritidis, Klebsiella sp., E. coli, P. vulgaris, and P. aeruginosa were cultured on LBG agar at 37 °C for 24 h. The yeast C. albicans was cultured on MEA at 37 °C, while S. cerevisiae was cultured on MEA at 30 °C for 24 h. The fungi A. niger, A. flavus, Penicillium sp., Rhizopus sp., Mucor sp., and F. moniliforme were grown on MEA at 30 °C for 7 days or until sporulation. The inocula of the tested bacteria/yeasts was prepared by homogenization of a small amount of biomass in 5 mL of sterile 0.5% NaCl. The inocula of tested fungi were prepared by the addition of 5 mL of sterile 0.5% NaCl into the tubes. After stirring by vortex V-1 plus (Biosan), they were filtered and replaced in other tubes before use. The number of viable cells and fungal spores was determined using a bacterial counting chamber Thoma (Poly-Optik, GmbH, Bad Blankenburg, Germany). Their final concentrations were adjusted to 10^8 cfu/mL for bacterial/yeast cells and 10^5 cfu/mL for fungal spores and then inoculated in preliminarily melted and tempered at 45–48 °C LBG/MEA agar media. Next, the inoculated media were transferred in a quantity of 18 mL in sterile Petri plates (d = 90 mm) (Gosselin™, Hazebrouck, France) and allowed to harden. Then, six wells (d = 6 mm) per plate were cut, and triplicates of 60 μL of each extract were pipetted into the agar wells. The Petri plates were incubated in identical conditions. The antimicrobial activity was determined by measuring the diameter of the inhibition zones around the wells on the 24th and 48th h of incubation. Tested microorganisms with inhibition zones of 18 mm or more were considered sensitive; moderately sensitive were those in which the zones were from 12 to 18 mm; resistant were those in which the inhibition zones were up to 12 mm or completely missing.

[2] = system: Listeria monocytogenes NBIMCC 8632; assay: Antimicrobial activity, agar well diffusion; format: cell-based; settings: Dose 0.6 mg/disk, dwell = 6 mm
Description: as §1

[3] = system: Salmonella typhimurium NBIMCC 1672; assay: Antimicrobial activity, agar well diffusion; format: cell-based; settings: Dose 0.6 mg/disk, dwell = 6 mm
Description: as §1

[4] = system: Pseudomonas aeruginosa ATCC 9027; assay: Antimicrobial activity, agar well diffusion; format: cell-based; settings: Dose 0.6 mg/disk, dwell = 6 mm
Description: as §1

[5] = system: Saccharomyces cerevisiae ATCC 9763; assay: Antimicrobial activity, agar well diffusion; format: cell-based; settings: Dose 0.6 mg/disk, dwell = 6 mm
Description: as §1

[6] = system: Escherichia coli ATCC 25922; assay: Antimicrobial activity, agar well diffusion; format: cell-based; settings: Dose 0.6 mg/disk, dwell = 6 mm
Description: as §1

[7] = system: Bacillus amyloliquefaciens 4BCL-YT; assay: Antimicrobial activity, agar well diffusion; format: cell-based; settings: Dose 0.6 mg/disk, dwell = 6 mm
Description: as §1

[8] = system: Salmonella enteritidis ATCC 13076; assay: Antimicrobial activity, agar well diffusion; format: cell-based; settings: Dose 0.6 mg/disk, dwell = 6 mm
Description: as §1

[9] = system: Bacillus subtilis ATCC 6633; assay: Antimicrobial activity, agar well diffusion; format: cell-based; settings: Dose 0.6 mg/disk, dwell = 6 mm
Description: as §1

[10] = system: Micrococcus luteus 2YC-YT; assay: Antimicrobial activity, agar well diffusion; format: cell-based; settings: Dose 0.6 mg/disk, dwell = 6 mm
Description: as §1

[11] = system: Aspergillus flavus; assay: Antimicrobial activity, agar well diffusion; format: cell-based; settings: Dose 0.6 mg/disk, dwell = 6 mm
Description: as §1

[12] = system: Penicillium chrysogenum; assay: Antimicrobial activity, agar well diffusion; format: cell-based; settings: Dose 0.6 mg/disk, dwell = 6 mm
Description: as §1

[13] = system: Aspergillus niger ATCC 1015; assay: Antimicrobial activity, agar well diffusion; format: cell-based; settings: Dose 0.6 mg/disk, dwell = 6 mm
Description: as §1

[14] = system: Proteus vulgaris ATCC 6380; assay: Antimicrobial activity, agar well diffusion; format: cell-based; settings: Dose 0.6 mg/disk, dwell = 6 mm
Description: as §1

[15] = system: Rhizopus sp.; assay: Antimicrobial activity, agar well diffusion; format: cell-based; settings: Dose 0.6 mg/disk, dwell = 6 mm
Description: as §1

[16] = MTT cell viability assay; format: cell-based; settings: human, 72 h exposure, ± SD, read-out: In vitro cytotoxicity IC50
Description: (§2) To evaluate the biocompatibility of the hybrid compounds, their in vitro antiproliferative activity was assessed in a panel of human malignant cell lines of different origin (K-562 and LAMA-84 suspension-growing myeloid leukemia cells, positive for the Philadelphia chromosome, and the urothelial bladder carcinoma cell line T-24 of adherent type). Non-malignant murine fibroblast cells (CCL-1) were also used as a screening platform. All cell lines were purchased from the German Collection of Microorganisms and Cell Cultures (DSMZ GmbH, Braunschweig, Germany). Cell cultures were cultivated in a growth medium RPMI 1640 supplemented with 10% fetal bovine serum (FBS), and 5% L-glutamine and were incubated under standard conditions of 37 °C and 5% humidified CO2 atmosphere. The effects of the newly synthesized anthranilic derivatives on cell viability were measured using a validated colorimetric assay for evaluating cell viability, known as the Mosmann MTT method. Exponential-phased cells were harvested and seeded (100 μL/well) in 96-well plates at the appropriate density (3 × 10^5 for the suspension cultures LAMA-84 and K-562 and 1.5 × 10^5 for the adherent T-24 and CCL-1 cells). Following a 24 h incubation, cells were treated with various concentrations of the experimental compounds in the concentration range of 200–12.5 μM. After an exposure time of 72 h, filter-sterilized MTT substrate solution (5 mg/mL in PBS) was added to each well of the culture plate. A further 2–4 h incubation allowed for the formation of purple insoluble formazan crystals. The latter was dissolved in isopropyl alcohol solution containing 5% formic acid prior to absorbance measurement at 550 nm. Collected absorbance values were blanked against MTT and isopropanol solution and normalized to the mean value of untreated control (100% cell viability).

[17] = system: Klebsiella pneumoniae ATCC 13883; assay: Antimicrobial activity, agar well diffusion; format: cell-based; settings: Dose 0.6 mg/disk, dwell = 6 mm
[18] = system: Enterococcus faecalis ATCC 29212; assay: Antimicrobial activity, agar well diffusion; format: cell-based; settings: Dose 0.6 mg/disk, dwell = 6 mm
[19] = MTT cell viability assay; format: cell-based, murine; settings: mouse, CCL-1 normal fibroblast cells (adherent); CCL-1, MTT, 72 h exposure, ± SD; read-out: In vitro cytotoxicity IC50
Description: as §2

[20] = biological target: T1, human albumin (Homo sapiens, UniProt P02768); assay: Inhibition of albumin denaturation (anti-inflammatory activity); format: biochemical; settings: heat-induced denaturation
T1 construct: purchased Octapharma (IP) SPRL Albunorm 20
Description: Anti-denaturation assay was conducted as described by Kumari et al. with slight modifications. The reaction mixture consisted of 0.5 mL of 5% aqueous solution of human albumin (Albunorm 20, Octapharma (IP) SPRL, 1070 Anderlecht, Belgium) and 0.2 mL of the tested compound, dissolved in DMSO, at different concentrations (20–500 μg/mL). The samples were incubated at 37 °C for 15 min. After that, 2.5 mL phosphate-buffered saline (pH 6.3) was added to each tube and the samples were heated for 30 min to 80 °C and then cooled for 5 min. Turbidity was measured spectrophotometrically at 660 nm (Cary 60 UV-Vis, Agilent Technologies, Santa Clara, CA, USA). For the blank sample, a mixture of 2.5 mL buffer and 0.2 mL DMSO was used instead of the compounds, while the product control test lacked the compounds’ concentration having 0.5 mL serum albumin, and 2.5 mL buffer only. The percentage inhibition of protein denaturation was calculated as follows:Percentage of inhibition denaturation = (Absorbancecontrol − Absorbancesample) / Absorbancecontrol × 100
The control represents 100% protein denaturation.
Commercially available over-the-counter non-steroidal anti-inflammatory drugs diclofenac sodium and acetylsalicylic acid were used for comparison. Their anti-inflammatory effect was determined as a percentage of inhibition of albumin denaturation following the same protocol as for the novel compounds.

[21] = system: K-562, LAMA-84, T-24, CCL-1 cell lines; set-up: method as in PMID 36831141; settings: reference spasmolytic drug; cited from earlier work
[22] = system: Gram-positive bacteria, Gram-negative bacteria, yeasts and fungi; set-up: method as in PMID 36831141; settings: same concentration range; cited from earlier work
[23] = K-562 myeloid leukemia cells (suspension), K-562, MTT
[24] = LAMA-84 myeloid leukemia cells (suspension), LAMA-84, MTT
[25] = T-24 urothelial bladder carcinoma cells (adherent), T-24, MTT

T1 sequence (P02768 25-609): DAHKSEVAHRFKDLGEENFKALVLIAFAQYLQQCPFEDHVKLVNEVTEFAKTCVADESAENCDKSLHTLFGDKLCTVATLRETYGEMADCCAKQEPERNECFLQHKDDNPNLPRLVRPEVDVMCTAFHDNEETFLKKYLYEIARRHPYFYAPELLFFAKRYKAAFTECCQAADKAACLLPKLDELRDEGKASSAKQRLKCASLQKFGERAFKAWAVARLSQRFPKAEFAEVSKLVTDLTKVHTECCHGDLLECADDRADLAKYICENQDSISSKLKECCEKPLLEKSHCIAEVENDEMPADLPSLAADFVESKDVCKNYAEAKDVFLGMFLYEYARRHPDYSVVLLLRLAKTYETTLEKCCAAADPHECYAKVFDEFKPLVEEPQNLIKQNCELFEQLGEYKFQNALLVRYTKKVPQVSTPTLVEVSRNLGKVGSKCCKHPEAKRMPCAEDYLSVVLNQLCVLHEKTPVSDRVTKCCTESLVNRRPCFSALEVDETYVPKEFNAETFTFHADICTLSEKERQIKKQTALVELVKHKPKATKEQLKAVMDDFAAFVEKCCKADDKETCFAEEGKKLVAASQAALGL

SMILES | Inhibition Zones [1] | Inhibition Zones [2] | Inhibition Zones [4] | Inhibition Zones [5] | Inhibition Zones [6] | Inhibition Zones [8] | Inhibition Zones [9] | Inhibition Zones [10] | Inhibition Zones [11] | Inhibition Zones [12] | Inhibition Zones [13] | Inhibition Zones [14] | Inhibition Zones [15] | IC50 at 72 h [16, 23] | IC50 at 72 h [16, 24] | IC50 at 72 h [16, 25] | Inhibition Zones [17] | IC50 at 72 h [19] | IC50 [20] | other results
O=C(Nc1ccccc1C(=O)NCCc1cccc(Cl)c1)c1ccccc1Cl [Compound 4d, 2-chloro-N-(2-((3-chlorophenethyl)carbamoyl)phenyl)benzamide] | 8 mm | 11 mm | 10 mm | 8 mm | 12 mm | 10 mm | 11 mm | 12 mm | 11 mm | 15 mm | 10 mm | 8 mm | 9 mm | 99.2 ± 8.8 µM | 183 ± 13.3 µM | > 200 µM | 8 mm | > 200 µM | 1670 µM | Inhibition Zones [3]: 12 mm; Inhibition Zones [7]: 10 mm; Inhibition Zones [18]: 8 mm
O=C(Cc1ccccc1)Nc1ccccc1C(=O)NCCc1cccc(Cl)c1 [Compound 4c, N-(3-chlorophenethyl)-2-(2-phenylacetamido)benzamide] | – | – | 10 mm | – | 10 mm | 8 mm | 9 mm | 12 mm | 8 mm | 8 mm | 10 mm | – | 8 mm | 27.4 ± 2.4 µM | 31.6 ± 1.1 µM | > 200 µM | – | 69.5 ± 6.1 µM | 1710 µM | –
O=C(NCCc1cccc(Cl)c1)c1ccccc1NC(=O)C(Cl)c1ccccc1 (centres unmarked) [Compound 4e, 2-(2-chloro-2-phenylacetamido)-N-(3-chlorophenethyl)benzamide] | 8 mm | 9 mm | 10 mm | 8 mm | 10 mm | 11 mm | 10 mm | 9 mm | 8 mm | 8 mm | 10 mm | 8 mm | 9 mm | 102 ± 7.9 µM | 193 ± 14.7 µM | 120 ± 9.9 µM | 16 mm | 69.1 ± 4.6 µM | – | –
CCN(CCCCOC(=O)c1ccc(OC)c(OC)c1)C(C)Cc1ccc(OC)cc1 (centres unmarked) [mebeverine] | – | – | – | – | – | – | – | – | – | – | – | – | – | – | – | – | – | – | – | half-inhibitory concentrations [21]: under the hundred-micromolar range; antimicrobial activity (overall, in words) [22]: did not show any antimicrobial activity
